The source of these data is ChEMBL document CHEMBL1201862, “PubChem BioAssay data set” (2004).

Activity calls are given as the source filed them.

The test system of data set [1] is HEK293. The data set is described as follows: cells. The settings on record: Homo sapiens. The class given is functional, cell-based.
The target in the next data set is Tumor necrosis factor (Homo sapiens, UniProt P01375). Kind of data set: TNFa-triggered NF-kB activation inhibitors, SAR follow-up, cell-based, revised (AID 2337). The class given is functional.
Sequence of Tumor necrosis factor (P01375 whole entry): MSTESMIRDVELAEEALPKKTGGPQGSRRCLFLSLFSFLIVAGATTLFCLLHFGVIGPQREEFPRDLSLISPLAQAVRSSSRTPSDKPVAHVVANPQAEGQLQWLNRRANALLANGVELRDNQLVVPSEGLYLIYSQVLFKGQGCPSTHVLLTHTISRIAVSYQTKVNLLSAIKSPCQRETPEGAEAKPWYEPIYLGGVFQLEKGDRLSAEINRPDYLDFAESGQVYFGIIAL
A short description of data set [2]: control 3'UTR Renilla luciferase suppression, dose response, counter-screen for Shn3 inhibitor project, cell-based, Clone20-Shn3RL, cherry-picked (AID 624133). The class given is functional.
Data set [3] has as its target Nucleotide-binding oligomerization domain-containing protein 2 (Homo sapiens, UniProt Q9HC29). The data set is described as follows: NOD2 signaling inhibitors, cell-based, luminescence, uHTS, HEK293 (AID 1566). Format: functional.
Data set [4] deals with T1, Heat shock factor protein 1 (Mus musculus, UniProt P38532).
T1 sequence (P38532 whole entry): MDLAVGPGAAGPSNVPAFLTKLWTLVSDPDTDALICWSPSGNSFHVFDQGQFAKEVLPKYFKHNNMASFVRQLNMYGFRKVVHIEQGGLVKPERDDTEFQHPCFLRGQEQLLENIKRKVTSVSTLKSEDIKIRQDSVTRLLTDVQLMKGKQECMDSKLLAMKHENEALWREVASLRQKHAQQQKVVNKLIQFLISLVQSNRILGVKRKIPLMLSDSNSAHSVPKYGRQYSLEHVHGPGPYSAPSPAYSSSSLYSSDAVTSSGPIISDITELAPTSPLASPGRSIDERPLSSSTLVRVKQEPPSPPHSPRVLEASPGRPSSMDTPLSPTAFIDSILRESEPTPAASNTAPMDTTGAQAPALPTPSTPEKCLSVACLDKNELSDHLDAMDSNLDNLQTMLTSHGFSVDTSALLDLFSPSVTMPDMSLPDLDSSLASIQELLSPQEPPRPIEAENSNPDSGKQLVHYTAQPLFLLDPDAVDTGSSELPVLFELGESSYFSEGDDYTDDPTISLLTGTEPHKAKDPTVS
The data set is described as follows: inhibition of MG132-induced HSE-luciferase signal, confirmation, cell-based, NIH3T3, luminescence, dose retest (AID 2382).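 Also: NIH3T3 fibroblasts with HSF1-driven luciferase reporter stressed by proteasome inhibitor MG132; luminescence from HSF1-driven luciferase expression after 8 hours of MG132 stress.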 The class given is functional.

A short description of data set [5]: Shn3 3'UTR reporter inhibitors, dose response, cell-based, Clone20 osteoblasts, firefly luciferase, cherry-picked (AID 624132).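 Also: firefly luciferase luminescence from reporter carrying the Shn3 3'UTR in osteoblasts.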 Format: functional.
The subject of data set [6] is HEK293. Kind of data set: cells. To be noted: Homo sapiens.
Data set [7] deals with HEK293. The data set is described as follows: cells. The class given is functional, cell-based. To be noted: Homo sapiens. This is another data set of the same source.
In data set [8] the test system is HEK293. The data set is described as follows: NOD2 signaling inhibitors in MDP-stimulated cells, cell-based, uHTS, luminescence (AID 2001). Format: functional. To be noted: Homo sapiens.
Data set [9] concerns HEK293. The data set is described as follows: NOD1 signaling inhibitors, primary screen, cell-based, luminescence, uHTS (AID 1578). To be noted: Homo sapiens. Format: functional.
Data set [10] deals with T2, Nucleotide-binding oligomerization domain-containing protein 1 (Homo sapiens, UniProt Q9Y239).
T2 sequence (Q9Y239 whole entry): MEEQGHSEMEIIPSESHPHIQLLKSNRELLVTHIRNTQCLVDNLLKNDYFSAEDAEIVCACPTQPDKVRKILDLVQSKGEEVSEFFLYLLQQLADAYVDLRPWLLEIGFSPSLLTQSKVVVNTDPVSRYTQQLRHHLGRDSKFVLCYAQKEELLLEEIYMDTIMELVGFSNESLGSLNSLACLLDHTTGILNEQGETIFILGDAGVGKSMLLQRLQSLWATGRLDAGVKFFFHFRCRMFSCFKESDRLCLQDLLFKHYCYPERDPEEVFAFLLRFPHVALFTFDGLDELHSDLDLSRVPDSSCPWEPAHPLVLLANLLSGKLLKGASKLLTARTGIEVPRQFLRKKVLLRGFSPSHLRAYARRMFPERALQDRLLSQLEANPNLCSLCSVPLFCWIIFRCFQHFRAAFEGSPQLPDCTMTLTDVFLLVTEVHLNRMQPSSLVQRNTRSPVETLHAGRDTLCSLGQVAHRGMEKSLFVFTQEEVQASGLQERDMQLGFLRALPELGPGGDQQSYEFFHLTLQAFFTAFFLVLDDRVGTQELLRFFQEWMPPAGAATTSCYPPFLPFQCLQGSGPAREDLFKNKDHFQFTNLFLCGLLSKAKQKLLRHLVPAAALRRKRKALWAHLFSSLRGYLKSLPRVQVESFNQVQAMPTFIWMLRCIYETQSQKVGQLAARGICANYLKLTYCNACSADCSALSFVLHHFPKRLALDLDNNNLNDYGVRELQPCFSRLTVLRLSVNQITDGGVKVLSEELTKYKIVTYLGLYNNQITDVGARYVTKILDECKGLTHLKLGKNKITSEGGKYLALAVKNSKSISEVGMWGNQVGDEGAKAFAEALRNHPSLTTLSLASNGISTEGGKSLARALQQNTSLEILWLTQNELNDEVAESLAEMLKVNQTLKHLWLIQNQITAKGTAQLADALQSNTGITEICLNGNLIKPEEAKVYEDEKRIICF
The data set is described as follows: NOD1 signaling inhibitors, SAR follow-up, revised (AID 2333). Format: functional.

The subject of data set [11] is HEK293. The data set is described as follows: cells. The class given is functional, cell-based. To be noted: Homo sapiens. This is another data set of the same source.
Data set [12] can be described thus: inhibitors of firefly luciferase expression or activity, dose response, H4 neuroglioma cells, luminescence (AID 1990). Format: functional, cell-based.
Data set [13] can be described thus: Luminescence Cell-Based Dose Response HTS to Identify Inhibitors of 5'UTR Stem-Loop Driven Prion Protein mRNA Translation in H4 Neuroglioblastoma Cells. [Related pubchem assays: 1827 (Project Summary), 1813 (Primary HTS)]. Format: functional.
Data set [14] is described as follows: inhibitors of SNCA 5'UTR-driven reporter translation, confirmation, H4 neuroglioma cells, luminescence (AID 1988). The class given is functional, cell-based.
Data set [15] concerns the target 5-hydroxytryptamine receptor 5A (Homo sapiens, UniProt P47898). The data set is described as follows: Counterscreen for agonists of OPRM1-OPRD1 heterodimerization: luminescence-based cell-based high throughput dose response assay to identify agonists of 5-hydroxytryptamine (serotonin) 5A receptor (HTR5A). [Related pubchem assays (depositor defined):AID504326, AID504355, AID504692, AID504904, AID504905]. The class given is functional.

Data set [16] deals with Delta-type opioid receptor (Homo sapiens, UniProt P41143). Kind of data set: Counterscreen for agonists of heterodimerization of the mu 1 (OPRM1) and delta 1 (OPRD1) opioid receptors: Luminescence-based cell-based high throughput dose response assay to identify agonists of OPRD1 homodimerization. [Related pubchem assays (depositor defined):AID504326, AID504355, AID504692, AID504904, AID504905]. The class given is functional.
Sequence of Delta-type opioid receptor (P41143 whole entry): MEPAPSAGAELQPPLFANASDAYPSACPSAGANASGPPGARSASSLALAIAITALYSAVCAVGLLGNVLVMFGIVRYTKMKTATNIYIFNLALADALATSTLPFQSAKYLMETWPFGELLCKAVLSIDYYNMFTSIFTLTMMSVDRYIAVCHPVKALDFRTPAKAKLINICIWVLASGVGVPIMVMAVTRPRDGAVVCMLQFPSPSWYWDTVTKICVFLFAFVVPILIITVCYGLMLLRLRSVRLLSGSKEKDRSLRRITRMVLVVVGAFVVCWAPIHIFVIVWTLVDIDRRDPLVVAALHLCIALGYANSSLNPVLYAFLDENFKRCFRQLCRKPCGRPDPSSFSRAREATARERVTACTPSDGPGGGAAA

Data set [17] has as its target T3, Cytochrome P450 3A4 (Homo sapiens, UniProt P08684).
For a further data set, the target named is Mu-type opioid receptor (Homo sapiens, UniProt P35372). The data set is described as follows: Counterscreen for agonists of heterodimerization of the mu 1 (OPRM1) and delta 1 (OPRD1) opioid receptors: Luminescence-based cell-based high throughput dose response assay to identify agonists of OPRM1 homodimerization. The class given is functional.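 Also: U2OS cells expressing OPRM1 and beta-arrestin as split beta-galactosidase partners.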
Sequence of Mu-type opioid receptor (P35372 whole entry): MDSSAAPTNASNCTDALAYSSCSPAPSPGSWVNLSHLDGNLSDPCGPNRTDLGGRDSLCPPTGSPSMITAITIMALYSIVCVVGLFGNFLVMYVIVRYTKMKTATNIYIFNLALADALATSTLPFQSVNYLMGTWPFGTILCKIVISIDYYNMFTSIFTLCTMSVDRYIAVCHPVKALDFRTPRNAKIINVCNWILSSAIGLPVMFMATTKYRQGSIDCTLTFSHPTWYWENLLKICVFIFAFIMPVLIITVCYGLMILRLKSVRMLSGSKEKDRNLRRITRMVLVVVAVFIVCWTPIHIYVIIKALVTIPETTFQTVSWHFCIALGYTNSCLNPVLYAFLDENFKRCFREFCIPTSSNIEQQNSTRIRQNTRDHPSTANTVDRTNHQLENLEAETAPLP
The target of a further data set is Cytochrome P450 2C19 (Homo sapiens, UniProt P33261). Kind of data set: Cytochrome panel assay with activity outcomes. Panel member name: p450-cyp2c19 Compounds with AC50 equal or less than 10 uM are considered active. The class given is functional.
Sequence of Cytochrome P450 2C19 (P33261 whole entry): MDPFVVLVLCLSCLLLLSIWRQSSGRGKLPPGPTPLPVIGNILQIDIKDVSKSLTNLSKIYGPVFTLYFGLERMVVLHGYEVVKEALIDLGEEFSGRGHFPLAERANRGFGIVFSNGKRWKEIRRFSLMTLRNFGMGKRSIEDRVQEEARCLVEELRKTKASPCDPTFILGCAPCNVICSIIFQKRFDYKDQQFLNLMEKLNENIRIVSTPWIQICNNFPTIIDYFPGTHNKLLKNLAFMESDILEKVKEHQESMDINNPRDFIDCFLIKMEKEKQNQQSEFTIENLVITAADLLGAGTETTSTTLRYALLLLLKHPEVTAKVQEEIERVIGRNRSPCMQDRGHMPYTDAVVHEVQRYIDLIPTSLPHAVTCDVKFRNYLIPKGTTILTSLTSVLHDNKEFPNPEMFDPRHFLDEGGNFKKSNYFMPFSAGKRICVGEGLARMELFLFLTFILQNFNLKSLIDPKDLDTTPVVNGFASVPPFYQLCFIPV
For the next data set, the target named is Cytochrome P450 2D6 (Homo sapiens, UniProt P10635).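 Also: CYP2D6 member of a cytochrome P450 panel assay.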
Sequence of Cytochrome P450 2D6 (P10635 whole entry): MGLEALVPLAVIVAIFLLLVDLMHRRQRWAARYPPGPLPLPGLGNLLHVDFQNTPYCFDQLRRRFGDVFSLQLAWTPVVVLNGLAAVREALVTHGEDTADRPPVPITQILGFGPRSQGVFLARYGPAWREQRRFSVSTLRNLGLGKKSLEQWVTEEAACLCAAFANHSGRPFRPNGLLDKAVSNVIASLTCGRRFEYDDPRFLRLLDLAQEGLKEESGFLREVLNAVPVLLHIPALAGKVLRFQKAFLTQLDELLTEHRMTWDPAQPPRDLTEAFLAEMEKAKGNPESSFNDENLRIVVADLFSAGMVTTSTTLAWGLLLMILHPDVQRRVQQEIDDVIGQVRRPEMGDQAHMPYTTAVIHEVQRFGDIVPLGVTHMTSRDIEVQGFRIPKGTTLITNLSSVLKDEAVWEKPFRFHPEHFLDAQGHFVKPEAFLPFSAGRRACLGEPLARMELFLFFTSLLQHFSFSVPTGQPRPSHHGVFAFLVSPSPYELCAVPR
For data set [18], the target named is T3, Cytochrome P450 3A4. The source holds these as a separate data set.
Another data set deals with T4, Cytochrome P450 1A2 (Homo sapiens, UniProt P05177).
T4 sequence (P05177 whole entry): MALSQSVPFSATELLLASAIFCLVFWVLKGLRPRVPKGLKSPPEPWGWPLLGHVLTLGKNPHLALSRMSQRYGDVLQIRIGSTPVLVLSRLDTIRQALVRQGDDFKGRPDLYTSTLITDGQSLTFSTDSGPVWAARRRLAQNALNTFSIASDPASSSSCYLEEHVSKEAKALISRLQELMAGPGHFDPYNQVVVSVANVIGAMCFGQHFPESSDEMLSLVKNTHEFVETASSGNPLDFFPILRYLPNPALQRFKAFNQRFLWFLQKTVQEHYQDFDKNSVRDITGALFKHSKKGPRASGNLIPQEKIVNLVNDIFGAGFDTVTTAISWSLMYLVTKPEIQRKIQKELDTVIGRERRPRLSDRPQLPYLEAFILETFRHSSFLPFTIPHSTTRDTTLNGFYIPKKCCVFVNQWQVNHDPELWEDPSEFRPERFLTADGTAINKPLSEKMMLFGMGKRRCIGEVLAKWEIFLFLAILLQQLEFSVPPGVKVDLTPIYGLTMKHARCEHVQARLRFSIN

T3 sequence (P08684 whole entry): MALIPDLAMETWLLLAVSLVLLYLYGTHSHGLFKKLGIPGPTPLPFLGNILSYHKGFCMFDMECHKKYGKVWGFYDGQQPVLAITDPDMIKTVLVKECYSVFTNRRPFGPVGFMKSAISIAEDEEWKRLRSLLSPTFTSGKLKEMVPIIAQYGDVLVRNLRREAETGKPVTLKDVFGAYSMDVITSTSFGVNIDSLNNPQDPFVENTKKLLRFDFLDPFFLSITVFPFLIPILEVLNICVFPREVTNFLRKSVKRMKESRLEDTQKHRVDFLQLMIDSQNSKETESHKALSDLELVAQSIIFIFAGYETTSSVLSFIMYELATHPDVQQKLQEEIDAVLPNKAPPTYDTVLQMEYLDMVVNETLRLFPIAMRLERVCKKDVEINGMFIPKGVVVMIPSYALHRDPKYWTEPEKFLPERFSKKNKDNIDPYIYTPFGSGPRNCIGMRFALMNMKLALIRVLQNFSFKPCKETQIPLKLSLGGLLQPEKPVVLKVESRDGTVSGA
Sequence of 5-hydroxytryptamine receptor 5A (P47898 whole entry): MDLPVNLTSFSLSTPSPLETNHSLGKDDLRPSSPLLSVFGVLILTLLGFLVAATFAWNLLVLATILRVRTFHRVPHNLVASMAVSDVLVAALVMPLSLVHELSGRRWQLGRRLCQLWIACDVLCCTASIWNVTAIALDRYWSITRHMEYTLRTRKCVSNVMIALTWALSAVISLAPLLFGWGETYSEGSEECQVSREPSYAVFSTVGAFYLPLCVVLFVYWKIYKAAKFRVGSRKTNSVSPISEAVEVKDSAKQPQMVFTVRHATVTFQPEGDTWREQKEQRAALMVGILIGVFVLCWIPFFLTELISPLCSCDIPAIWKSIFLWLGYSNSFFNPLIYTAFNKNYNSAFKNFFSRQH
Sequence of Nucleotide-binding oligomerization domain-containing protein 2 (Q9HC29 whole entry, the tested form may be a part): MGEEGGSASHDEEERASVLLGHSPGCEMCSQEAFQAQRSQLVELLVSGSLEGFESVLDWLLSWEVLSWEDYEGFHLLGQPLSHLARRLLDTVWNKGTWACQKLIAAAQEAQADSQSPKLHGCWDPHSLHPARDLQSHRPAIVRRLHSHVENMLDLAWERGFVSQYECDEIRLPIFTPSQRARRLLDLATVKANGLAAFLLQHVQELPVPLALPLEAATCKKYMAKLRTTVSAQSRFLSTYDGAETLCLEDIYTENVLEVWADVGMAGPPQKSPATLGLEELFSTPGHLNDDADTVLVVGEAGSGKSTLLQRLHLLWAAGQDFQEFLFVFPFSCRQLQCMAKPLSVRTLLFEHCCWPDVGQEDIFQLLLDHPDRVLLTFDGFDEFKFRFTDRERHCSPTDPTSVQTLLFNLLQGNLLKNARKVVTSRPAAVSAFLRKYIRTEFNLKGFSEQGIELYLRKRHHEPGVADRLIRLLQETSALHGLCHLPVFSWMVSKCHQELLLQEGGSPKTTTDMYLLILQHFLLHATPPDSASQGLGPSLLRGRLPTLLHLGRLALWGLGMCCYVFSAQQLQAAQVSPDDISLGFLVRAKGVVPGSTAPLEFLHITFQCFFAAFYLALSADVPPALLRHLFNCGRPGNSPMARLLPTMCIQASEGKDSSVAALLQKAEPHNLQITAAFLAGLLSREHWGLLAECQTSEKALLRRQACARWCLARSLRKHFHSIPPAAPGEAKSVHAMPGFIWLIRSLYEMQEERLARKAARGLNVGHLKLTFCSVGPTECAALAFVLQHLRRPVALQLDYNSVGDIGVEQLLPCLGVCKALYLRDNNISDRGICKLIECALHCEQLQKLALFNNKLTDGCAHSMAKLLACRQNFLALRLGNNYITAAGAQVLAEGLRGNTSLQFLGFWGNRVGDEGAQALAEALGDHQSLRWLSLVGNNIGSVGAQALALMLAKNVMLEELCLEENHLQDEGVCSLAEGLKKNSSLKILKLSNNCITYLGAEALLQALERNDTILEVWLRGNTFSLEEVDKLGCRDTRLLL

Turning to `Cc1cc(C(=O)COC(=O)c2ccccc2Br)c(C)n1CC1CCCO1` (centres undefined), the IC50 in the data set with HEK293 [1] was > 20 µM (inactive); at Tumor necrosis factor, 0.0456 µM (active); with HEK293 [6], > 20 µM (inactive); in the data set with HEK293 [7] it was < 0.312 µM (active); in the data set on HEK293 [8], 0.036 µM (active); in [10], 4.8 µM (active). For the same compound, the IC50 with HEK293 [11] was > 20 µM (inactive). The AC50 was 21.4 µM (active) in data set [2] and > 70 µM (inactive) in data set [5]. For the same compound, the EC50 in [3] was 0.46 µM (active); in [4] it was < 0.16 µM (active); in the data set with HEK293 [9], > 20 µM (inactive).
`COc1cc(C(=O)Nc2sc3c(c2C(=O)O)CCC(C)C3)cc(OC)c1OC` (centres undefined): the EC50 in [12] was > 120 µM (not active); in [3], 2.24 µM (active); in data set [13], > 120 µM (not active); in the data set on HEK293 [9], 4.16 µM (active); in [14] it was 12.8 µM (active). The IC50 in the data set on HEK293 [1] was > 20 µM (inactive); on Tumor necrosis factor, 7.41 µM (active); in the data set on HEK293 [6], > 20 µM (inactive); in the data set on HEK293 [7], > 20 µM (inactive); in the data set on HEK293 [8], 9.76 µM (active); in data set [10], 5.19 µM (active). Further, in the data set on HEK293 [11], the IC50 is > 20 µM (inactive).
Regarding `Cc1cccc(NC(=S)NC(=O)CCc2ccccc2)c1`, the EC50 (in data set [15]; in [16]; at Mu-type opioid receptor) was > 92.5 µM (inactive) each time. The concentration at half-maximal activity (AC50) on Cytochrome P450 3A4 [17] is 25.1 µM (inconclusive).
For the compound `O=C(O)CCC(=O)Nc1ccc(C(=O)N2CCCCC2)cc1`, the AC50 entry on Cytochrome P450 2C19 and at Cytochrome P450 2D6 was “inconclusive” throughout.
Consider `COC(=O)C1=C(C)N(CCCC(=O)O)C(=O)NC1c1ccccc1OS(=O)(=O)c1ccccc1[N+](=O)[O-]` (centres undefined), for which the EC50 was > 92.5 µM (inactive) in data set [15], 15.5 µM (inactive) in [16] and > 92.5 µM (inactive) at Mu-type opioid receptor.
With `CCOc1cc(CNCCO)c(Cl)cc1OCC(=O)NCCc1ccccc1`, on Cytochrome P450 2D6, the concentration at half-maximal activity (AC50) entry was “inconclusive”.
On to `COC(=O)C1=C(C)N(CCCC(=O)O)C(=O)NC1c1ccccc1OS(=O)(=O)c1ccc([N+](=O)[O-])cc1` (centres undefined), for which the results for the EC50 (in data set [15]; in [16]; on Mu-type opioid receptor) were > 92.4 µM (inactive), 11.7 µM (inactive) and > 92.4 µM (inactive), respectively.
`CC(C)n1nnc2ccccc2c1=O`: the AC50 result at Cytochrome P450 3A4 [18] was “inconclusive”; at Cytochrome P450 2C19 (read-out: AC50), 39.8 µM (inconclusive); at Cytochrome P450 2D6, “inconclusive”; on Cytochrome P450 1A2, 11.2 µM (inconclusive).
Regarding `CN(C)C(CNC(=O)c1ccc(Br)cc1)c1ccco1` (centres undefined), the EC50 (in data set [15]; in data set [16]; on Mu-type opioid receptor) was > 92.5 µM (inactive) in each case.
As to `COC(=O)c1cc(OC)c(OC)cc1N=C(S)N1CCN(C)CC1`, the half-maximal activity concentration (AC50) result is “inconclusive” on Cytochrome P450 2D6, 14.1 µM (inconclusive) at Cytochrome P450 3A4 [17] and 11.2 µM (inconclusive) on Cytochrome P450 1A2.
With `COc1ccc(C(C)=O)c(OC(=O)c2ccco2)c1`, the AC50 was 7.94 µM (inconclusive) at Cytochrome P450 2C19 (read-out: AC50) and “inconclusive” at Cytochrome P450 2D6.
